The source of these data is article PMC3914206.

Type in all cases: binding
What all share (set-up): KINOMEscan: ABL1(F317L)-phosphorylated / KINOMEscan: ABL1(H396P)-nonphosphorylated / KINOMEscan: ABL1(H396P)-phosphorylated / KINOMEscan: ABL1(M351T)-phosphorylated / KINOMEscan: ABL1(T315I)-phosphorylated / KINOMEscan: ABL1-nonphosphorylated / KINOMEscan: ABL1-phosphorylated / KINOMEscan: ACVR2A / KINOMEscan: ACVR2B / KINOMEscan: ADCK3 / KINOMEscan: ADCK4 / KINOMEscan: AKT1 / KINOMEscan: AKT3 / KINOMEscan: ALK / KINOMEscan: ARK5 / KINOMEscan: AURKA / KINOMEscan: AURKC / KINOMEscan: BIKE / KINOMEscan: BMPR1A / KINOMEscan: BMPR1B / KINOMEscan: BMX / KINOMEscan: BRK / KINOMEscan: BRSK1 / KINOMEscan: BRSK2 / KINOMEscan: CAMK1 / KINOMEscan: CAMK1D / KINOMEscan: CAMK1G / KINOMEscan: CAMK2A / KINOMEscan: CAMK2B / KINOMEscan: AAK1 / KINOMEscan: CAMK2D / KINOMEscan: CAMK2G / KINOMEscan: ABL1(F317I)-nonphosphorylated / KINOMEscan: ABL1(F317I)-phosphorylated / KINOMEscan: ABL1(F317L)-nonphosphorylated: unit: % Ctrl
Holding throughout (details): Compound Concentration 10 µM

Assay [1] has as its target T1, panel of 442 kinases (Homo sapiens, UniProt P00519, T315I).
T1 construct: purchased KINOMEscan
From the text:
(§1) We assessed the selectivity of members of this scaffold using the KINOMEscan methodology across a near comprehensive panel of 442 kinases [[18,27]].

Assay [2] deals with T2, panel of 442 kinases (Homo sapiens, UniProt P42336, Q546K).
T2 construct: purchased KINOMEscan
T2 sequence (P42336 whole entry Q546K): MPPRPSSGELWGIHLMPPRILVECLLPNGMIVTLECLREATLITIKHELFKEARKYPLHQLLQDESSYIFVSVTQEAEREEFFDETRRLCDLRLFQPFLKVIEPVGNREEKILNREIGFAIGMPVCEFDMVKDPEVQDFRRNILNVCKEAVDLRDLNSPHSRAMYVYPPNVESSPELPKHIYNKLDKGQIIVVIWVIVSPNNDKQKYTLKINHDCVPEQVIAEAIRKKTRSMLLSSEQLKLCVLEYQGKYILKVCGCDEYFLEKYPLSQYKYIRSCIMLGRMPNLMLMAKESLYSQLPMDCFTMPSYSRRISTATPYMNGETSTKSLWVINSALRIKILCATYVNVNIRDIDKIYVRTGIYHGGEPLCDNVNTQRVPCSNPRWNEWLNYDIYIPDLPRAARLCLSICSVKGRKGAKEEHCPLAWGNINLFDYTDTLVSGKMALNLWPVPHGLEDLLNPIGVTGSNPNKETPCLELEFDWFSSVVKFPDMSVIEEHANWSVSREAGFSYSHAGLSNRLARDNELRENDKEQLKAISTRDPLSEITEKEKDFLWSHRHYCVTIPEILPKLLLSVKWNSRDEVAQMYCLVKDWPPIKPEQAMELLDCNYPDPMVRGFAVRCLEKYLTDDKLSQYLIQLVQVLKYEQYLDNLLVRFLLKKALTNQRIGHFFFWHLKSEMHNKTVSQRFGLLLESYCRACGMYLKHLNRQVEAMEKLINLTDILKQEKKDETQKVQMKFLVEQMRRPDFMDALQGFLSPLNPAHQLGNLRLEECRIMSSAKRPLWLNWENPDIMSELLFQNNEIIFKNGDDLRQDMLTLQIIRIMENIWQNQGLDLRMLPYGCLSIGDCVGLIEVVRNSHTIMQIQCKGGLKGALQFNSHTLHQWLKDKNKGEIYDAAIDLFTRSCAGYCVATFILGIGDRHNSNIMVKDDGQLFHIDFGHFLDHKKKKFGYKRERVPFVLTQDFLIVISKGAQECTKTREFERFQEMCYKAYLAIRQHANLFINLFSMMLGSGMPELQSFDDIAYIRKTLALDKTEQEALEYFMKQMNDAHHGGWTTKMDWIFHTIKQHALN
Source text: as §1

The target of assay [3] is T3, panel of 442 kinases (Homo sapiens, UniProt P51812).
T3 construct: purchased KINOMEscan
T3 sequence (P51812 whole entry): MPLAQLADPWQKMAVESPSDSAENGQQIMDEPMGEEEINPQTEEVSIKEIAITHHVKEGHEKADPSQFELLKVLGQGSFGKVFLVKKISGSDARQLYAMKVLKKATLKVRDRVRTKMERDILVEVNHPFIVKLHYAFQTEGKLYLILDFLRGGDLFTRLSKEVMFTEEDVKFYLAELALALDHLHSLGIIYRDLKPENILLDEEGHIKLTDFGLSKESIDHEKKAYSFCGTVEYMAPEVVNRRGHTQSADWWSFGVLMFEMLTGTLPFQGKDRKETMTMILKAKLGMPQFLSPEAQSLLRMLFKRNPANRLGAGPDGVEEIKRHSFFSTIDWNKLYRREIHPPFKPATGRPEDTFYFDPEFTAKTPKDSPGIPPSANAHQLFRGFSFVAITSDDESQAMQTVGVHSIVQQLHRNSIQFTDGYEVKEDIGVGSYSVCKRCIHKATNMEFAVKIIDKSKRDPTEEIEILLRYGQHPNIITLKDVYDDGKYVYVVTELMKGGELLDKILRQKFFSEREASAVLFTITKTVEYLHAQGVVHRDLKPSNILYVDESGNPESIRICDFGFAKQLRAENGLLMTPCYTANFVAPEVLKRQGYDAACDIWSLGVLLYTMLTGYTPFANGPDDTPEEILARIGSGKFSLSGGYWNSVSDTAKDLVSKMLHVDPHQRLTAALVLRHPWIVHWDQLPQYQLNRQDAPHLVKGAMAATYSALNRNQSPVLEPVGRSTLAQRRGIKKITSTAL
Source text: as §1

The target in assay [4] is T4, panel of 442 kinases (Homo sapiens, UniProt Q9Y5S2).
T4 construct: purchased KINOMEscan
T4 sequence (Q9Y5S2 whole entry): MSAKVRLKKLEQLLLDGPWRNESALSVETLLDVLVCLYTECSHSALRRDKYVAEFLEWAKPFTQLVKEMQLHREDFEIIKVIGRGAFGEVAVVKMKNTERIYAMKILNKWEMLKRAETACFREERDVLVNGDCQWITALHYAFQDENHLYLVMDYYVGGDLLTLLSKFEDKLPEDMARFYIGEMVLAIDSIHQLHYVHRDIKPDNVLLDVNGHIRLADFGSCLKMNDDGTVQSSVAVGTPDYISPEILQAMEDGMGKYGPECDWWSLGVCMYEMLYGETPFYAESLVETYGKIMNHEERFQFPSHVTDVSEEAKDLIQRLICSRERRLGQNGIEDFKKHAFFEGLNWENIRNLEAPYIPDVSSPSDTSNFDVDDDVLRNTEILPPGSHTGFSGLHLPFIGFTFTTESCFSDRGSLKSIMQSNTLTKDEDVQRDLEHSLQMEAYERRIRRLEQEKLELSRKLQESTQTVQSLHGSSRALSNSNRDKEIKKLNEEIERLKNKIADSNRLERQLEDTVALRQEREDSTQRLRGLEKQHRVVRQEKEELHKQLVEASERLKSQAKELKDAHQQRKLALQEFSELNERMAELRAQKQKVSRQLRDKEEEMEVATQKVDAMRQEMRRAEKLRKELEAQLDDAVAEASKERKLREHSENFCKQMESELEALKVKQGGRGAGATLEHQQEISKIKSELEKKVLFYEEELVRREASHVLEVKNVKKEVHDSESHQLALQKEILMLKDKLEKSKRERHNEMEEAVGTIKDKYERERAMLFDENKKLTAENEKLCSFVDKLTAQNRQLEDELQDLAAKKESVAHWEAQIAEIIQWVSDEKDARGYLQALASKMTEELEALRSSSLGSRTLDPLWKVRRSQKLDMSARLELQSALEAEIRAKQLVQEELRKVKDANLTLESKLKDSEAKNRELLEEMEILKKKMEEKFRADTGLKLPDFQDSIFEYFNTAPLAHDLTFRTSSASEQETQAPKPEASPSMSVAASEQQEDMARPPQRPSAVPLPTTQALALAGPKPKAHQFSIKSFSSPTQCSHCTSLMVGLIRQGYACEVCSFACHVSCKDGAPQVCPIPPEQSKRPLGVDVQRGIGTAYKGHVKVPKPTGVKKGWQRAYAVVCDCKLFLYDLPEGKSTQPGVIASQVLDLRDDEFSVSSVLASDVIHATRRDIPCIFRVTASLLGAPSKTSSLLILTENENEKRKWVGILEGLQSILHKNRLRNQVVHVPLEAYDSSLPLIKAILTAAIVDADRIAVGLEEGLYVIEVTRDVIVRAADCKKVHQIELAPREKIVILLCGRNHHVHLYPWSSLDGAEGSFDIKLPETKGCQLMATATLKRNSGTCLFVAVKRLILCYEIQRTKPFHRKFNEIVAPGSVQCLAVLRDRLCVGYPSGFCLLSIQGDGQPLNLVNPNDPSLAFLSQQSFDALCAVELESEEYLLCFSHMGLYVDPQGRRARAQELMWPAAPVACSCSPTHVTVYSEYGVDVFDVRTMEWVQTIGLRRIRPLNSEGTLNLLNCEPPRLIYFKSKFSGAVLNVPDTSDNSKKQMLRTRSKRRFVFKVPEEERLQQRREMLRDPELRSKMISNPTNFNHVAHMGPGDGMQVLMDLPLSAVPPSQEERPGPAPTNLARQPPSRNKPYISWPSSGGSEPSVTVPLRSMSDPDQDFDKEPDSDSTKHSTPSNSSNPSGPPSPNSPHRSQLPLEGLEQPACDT
Source text: as §1

For `COc1cc(C(=O)N2CCC(N3CCN(C)CC3)CC2)ccc1Nc1ncc2c(n1)N(C)c1ccccc1C(=O)N2C` [15 (LRRK2-IN-1)], on panel of 442 kinases [1], the “KINOMEscan: ABL1(T315I)-nonphosphorylated” value is 100 and the “KINOMEscan: ABL1(T315I)-phosphorylated” value is listed as 58. Further, the “KINOMEscan: PIK3CA(Q546K)” value on panel of 442 kinases [2] worked out at 91. Further, the “KINOMEscan: RSK2(Kin.Dom.1-N-terminal)” value at panel of 442 kinases [3] was 77. For the same compound, the “KINOMEscan: MRCKB” value at panel of 442 kinases [4] is on record as 100.

Take `COc1cc(C(=O)N2CCC(N3CCN(C)CC3)CC2)ccc1Nc1ncc2c(n1)N1CCc3cccc(c31)C(=O)N2C` [Compound 24]: the “KINOMEscan: ABL1(T315I)-phosphorylated” value on panel of 442 kinases [1] amounted to 100. Further, the “KINOMEscan: PIK3CA(Q546K)” value at panel of 442 kinases [2] is 98.

With `COc1cc(C(=O)N2CCC(N3CCN(C)CC3)CC2)ccc1Nc1ncc2c(n1)N(C1CCCC1)c1ccccc1C(=O)N2C` [Compound 25, 11-cyclopentyl-2-((2-methoxy-4-(4-(4-methylpiperazin-1-yl)piperidine-1-carbonyl)phenyl)amino)-5-methyl-5H-benzo[e]pyrimido[5,4-b][1,4]diazepin-6(11H)-one], at panel of 442 kinases [1], the “KINOMEscan: ABL1(T315I)-nonphosphorylated” value turned out to be 100 and the “KINOMEscan: ABL1(T315I)-phosphorylated” value came to 100. At panel of 442 kinases [2], the “KINOMEscan: PIK3CA(Q546K)” value is recorded as 100. Moreover, the “KINOMEscan: RSK2(Kin.Dom.1-N-terminal)” value at panel of 442 kinases [3] came to 100. Further, the “KINOMEscan: MRCKB” value at panel of 442 kinases [4] was found to be 100.

As to `CCOc1cc(C(=O)N2CCC(N3CCN(C)CC3)CC2)ccc1Nc1ncc2c(n1)N(C1CCCC1)c1ccccc1C(=O)N2C` [Compound 26], at panel of 442 kinases [1], the “KINOMEscan: ABL1(T315I)-nonphosphorylated” value was 95 and the “KINOMEscan: ABL1(T315I)-phosphorylated” value is 92. Also, on panel of 442 kinases [2], the “KINOMEscan: PIK3CA(Q546K)” value came out at 99. Besides, the “KINOMEscan: RSK2(Kin.Dom.1-N-terminal)” value on panel of 442 kinases [3] turned out to be 100. Further, on panel of 442 kinases [4], the “KINOMEscan: MRCKB” value is given as 100.
